Assay results published in patent US7358250B2, “Pyrrolo[2,3-d]pyrimidines that modulate ACK1 activity” (Amgen Inc., priority 2004, dated 2008).

Assays:
ACK1 = target: T1, ACK1 (Homo sapiens, UniProt Q07912); test: ACK1 Enzymatic Assay; assay type: biochemical; conditions: 5 μM ATP, ELISA phosphotyrosine readout
T1 construct: a fusion of an N-terminal (His)6 Tag with amino acids 117 to 489 of ACK1; (His)6 (N); made in house; host or cells: baculovirus infected Hi-5 insect cells
Method: IC50 values of inventive compounds may be assessed as follows. […] The substrate of for the reaction is ACK1 itself (autophosphorylation) and poly-Glutamic acid-Tyrosine (PGT (4:1), Sigma catalog #PO275). The PGT is coated to Nunc 96 well plates at 80 μg/mL overnight at 4° C. […] Test compounds are added in 10 μL DMSO, and the reaction is started by addition of 10 μL kinase in assay buffer. The reaction proceeds 2 h at room temperature. Next the plates are washed four times, and the level of tyrosine phosphorylation in a given well is quantified by standard ELISA assay utilizing a phosphotyrosine antibody (PY20, Pierce).

C8 cells = test: ACK1 Cell Based Assay, test (C8) cell line; conditions: 0.125% FCS, 20 to 24 h, cell viability (Cytotox One kit)
Method: The ACK1 cell based assay is designed to find inhibitors of ACK1 kinase activity which would be prime candidates for the development of anticancer drugs. […] This dependency was confirmed utilizing ACK1 specific siRNAs.
For this assay, test (C8) and control (HeLa) cell lines are seeded in 96 well tissue culture plates (BD Falcon) at a density of 2 to 4×10^4 in DMEM/F12 (C8) or DMEM (HeLa) with 0.125% FCS in the presence of ACK1 inhibitors (final DMSO concentration is 0.5%, all tissue culture media are from Cellgro). After 20 to 24 h incubation at 37° C. and 5% CO2, cell viability is determined using the Cytotox One kit (Promega) according to the manufacturer's instructions.

LCK = target: T2, LCK (Homo sapiens, UniProt P06239); test: LCK-Homogeneous Time Resolved Fluorescent (HTRF) Kinase Assay; assay type: biochemical; conditions: LCK KD GST (225-509)
T2 construct: 15 μL of LCK KD GST (225-509) for a final volume of 40 μL; GST
Method: The LCK HTRF assay begins with LCK in the presence of ATP phosphorylating the biotinylated peptide Gastrin. The reaction incubates for 90 min. To quench the assay detection reagents are added which both stop the reaction by diluting out the enzyme and chelating the metals due to the presence of EDTA. Once the detection reagents are added the assay incubates for 30 min to allow for equilibration of the detection reagents.
The final concentration of gastrin is 1.2 μM. The final concentration of ATP is 0.5 μM (Km app=[…]) and the final concentration of LCK is […]. Buffer conditions are as follows: 50 mM HEPES pH 7.5, 50 mM NaCl, 20 mM MgCl, 5 mM MnCl, 2 mM DTT, 0.05% BSA.
The assay is quenched and stopped with 160 μL of detection reagent. Detection reagents are as follows: Buffer made of 50 mM Tris, pH 7.5, 100 mM NaCl, 3 mM EDTA, 0.05% BSA, 0.1% Tween20. Added to this buffer prior to reading is Steptavidin allophycocyanin (SA-APC) at a final conc in the assay of 0.0004 mg/mL, and europilated anti-phosphotyrosine Ab (Eu-anti-PY) at a final conc of 0.025 nM.
The assay plate is read in either a Discovery or a RubyStar. The eu-anti-PY is excited at 320 nm and emits at 615 nm to excite the SA-APC which in turn emits at 655 nm. The ratio of SA-APC at 655 nm (excited due to close proximity to the Eu-anti-PY because of phosphorylation of the peptide) to free Eu-anti-PY at 615 nm will give substrate phosphorylation.

T1 sequence (Q07912 117-489): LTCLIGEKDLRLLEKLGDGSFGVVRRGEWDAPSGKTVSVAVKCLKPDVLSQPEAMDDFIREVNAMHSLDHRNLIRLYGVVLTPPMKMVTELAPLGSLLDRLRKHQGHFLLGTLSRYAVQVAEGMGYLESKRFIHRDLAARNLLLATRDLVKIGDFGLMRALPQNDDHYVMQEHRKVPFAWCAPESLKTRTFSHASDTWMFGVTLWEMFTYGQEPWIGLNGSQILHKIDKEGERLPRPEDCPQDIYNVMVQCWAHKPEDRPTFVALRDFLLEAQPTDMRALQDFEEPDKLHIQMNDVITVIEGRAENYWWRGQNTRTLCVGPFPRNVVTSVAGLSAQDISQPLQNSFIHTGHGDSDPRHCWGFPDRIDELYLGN
T2 sequence (P06239 225-509): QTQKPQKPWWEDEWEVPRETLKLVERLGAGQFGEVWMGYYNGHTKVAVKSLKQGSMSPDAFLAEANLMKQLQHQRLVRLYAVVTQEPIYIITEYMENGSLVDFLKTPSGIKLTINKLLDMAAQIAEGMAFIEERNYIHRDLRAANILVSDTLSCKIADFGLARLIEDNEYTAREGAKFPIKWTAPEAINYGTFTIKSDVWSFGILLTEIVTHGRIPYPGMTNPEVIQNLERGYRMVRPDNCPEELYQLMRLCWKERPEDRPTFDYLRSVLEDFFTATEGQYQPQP

Row | Ki (ACK1) | Ki (LCK) | Compound | IC50 (C8 cells)
1 | > 100 nM | < 10 nM | CN(C)CCOc1ccc(-c2[nH]c3ncnc(NC[C@H]4CCC[C@H]4NS(C)(=O)=O)c3c2-c2ccccc2)cc1 (relative stereo) [Example 39, cis-N-[2-({6-[4-(2-Dimethylamino-ethoxy)-phenyl]-5-phenyl-7H-pyrrolo[2,3-d]pyrimidin-4-ylamino}-methyl)-cyclopentyl]-methanesulfonamide] | > 100 nM
2 | < 10 nM | 10 to 100 nM | N#CCOc1ccc(-c2[nH]c3ncnc(NC[C@@H]4CCCO4)c3c2-c2ccccc2)cc1 [Example 25, (4-{5-Phenyl-4-[(tetrahydrofuran-2-ylmethyl)-amino]-7H-pyrrolo[2,3-d]pyrimidin-6-yl}-phenoxy)-acetonitrile] | 10 to 100 nM
3 | 10 to 100 nM | – | CN(C)CCOc1ccc(-c2[nH]c3ncnc(NC[C@@H]4CC[C@H]4O)c3c2-c2ccccc2)cc1 (mixture of isomers) [Example 36, trans/cis-2-({6-[4-(2-Dimethylamino-ethoxy)-phenyl]-5-phenyl-7H-pyrrolo[2,3-d]pyrimidin-4-ylamino}-methyl)-cyclobutanol] | > 100 nM
4 | – | < 10 nM | CN(C)CCOc1ccc(-c2[nH]c3ncnc(NCC4SCCS4)c3c2-c2ccccc2)cc1 [Example 33, {6-[4-(2-Dimethylaminoethoxy)-phenyl]-5-phenyl-7H-pyrrolo[2,3-d]pyrimidin-4-yl}-[1,3]dithiolan-2-ylmethyl-amine] | < 10 nM
5 | – | < 10 nM | CN(C)CCOc1ccc(-c2[nH]c3ncnc(NC[C@H]4CCC[C@H]4O)c3c2-c2ccccc2)cc1 (relative stereo) [Example 37, cis-2-({6-[4-(2-Dimethylamino-ethoxy)-phenyl]-5-phenyl-7H-pyrrolo[2,3-d]pyrimidin-4-ylamino}-methyl)-cyclopentanol] | > 100 nM

Continued, molecule first:

Row | Compound | Ki (ACK1) | Ki (LCK) | IC50 (C8 cells)
6 | COCCNC(=O)c1ccc(-c2[nH]c3ncnc(NCC4CCCO4)c3c2-c2ccccc2)cc1 (stereo not drawn) [Example 30, N-(2-Methoxyethyl)-4-{5-phenyl-4-[(tetrahydrofuran-2-ylmethyl)-amino]-7H-pyrrolo[2,3-d]pyrimidin-6-yl}-benzamide] | < 10 nM | < 10 nM | 10 to 100 nM
7 | c1ccc(-c2c(-c3ccc(OCCN4CCOCC4)cc3)[nH]c3ncnc(NCC4CCCO4)c23)cc1 (stereo not drawn) [Example 21, {6-[4-(2-Morpholin-4-yl-ethoxy)-phenyl]-5-phenyl-7H-pyrrolo[2,3-d]pyrimidin-4-yl}-(tetrahydro-furan-2-ylmethyl)-amine] | < 10 nM | < 10 nM | 10 to 100 nM
8 | O=S(=O)(NCC(O)CO)c1ccc(-c2[nH]c3ncnc(NC[C@@H]4CCCO4)c3c2-c2ccccc2)cc1 (stereo partly drawn) [Example 16, N-(2,3-Dihydroxy-propyl)-4-{5-phenyl-4-[(tetrahydrofuran-2-ylmethyl)-amino]-7H-pyrrolo[2,3-d]pyrimidin-6-yl}-benzenesulfonamide] | < 10 nM | < 10 nM | > 100 nM
9 | CNC(=O)c1ccc(-c2[nH]c3ncnc(NC[C@@H]4CCCO4)c3c2-c2ccccc2)cc1 [Example 26, N-Methyl-4-{5-phenyl-4-[(tetrahydrofuran-2-ylmethyl)-amino]-7H-pyrrolo[2,3-d]pyrimidin-6-yl}-benzamide] | < 10 nM | < 10 nM | 10 to 100 nM
10 | CN(C)C(=O)c1ccc(-c2[nH]c3ncnc(NCC4CCCO4)c3c2-c2ccccc2)cc1 (stereo not drawn) [Example 27, N,N-Dimethyl-4-{5-phenyl-4-[(tetrahydrofuran-2-ylmethyl)-amino]-7H-pyrrolo[2,3-d]pyrimidin-6-yl}-benzamide] | < 10 nM | < 10 nM | 10 to 100 nM
11 | C=CCNS(=O)(=O)c1ccc(-c2[nH]c3ncnc(NCC4CCCO4)c3c2-c2ccccc2)cc1 (stereo not drawn) [Example 12, N-Allyl-4-{5-phenyl-4-[(tetrahydro-furan-2-ylmethyl)-amino]-7H-pyrrolo[2,3-d]pyrimidin-6-yl}-benzenesulfonamide] | < 10 nM | < 10 nM | > 100 nM
